Common to all, as to format: physicochemical
Data set [1] is described as follows: Photosensitivity. The note with it: especially in solution.
A short description of data set [2]: Thermogravimetric analysis (TGA). How it is done: (§1) All powder X-ray diffraction (PXRD) data was collected using a Rigaku Miniflex instrument. Samples were analyzed on silicon zero background holders from 2 to 40 degrees two theta with a step size of 0.02 degrees two theta and a scan time of 0.6 seconds per step. Differential scanning calorimetry (DSC) data was collected using a Q100 DSC from TA Instruments. Samples were sealed in hermetic aluminum pans with two pinholes in the lid. All were analyzed under nitrogen purge. Vapor sorption analysis was performed using a SGA-100 from VTI Scientific Instruments. Thermogravimetric analysis (TGA) data was collected on a Q500 TGA from TA Instruments. Samples were analyzed in platinum pans under a nitrogen purge.

Data set [3] is described as follows: Competition slurry experiments. On the procedure: Competition slurry experiments were conducted by combining approximately 100 milligrams of starting material with 1 milliliter of solvent in a 4 milliliter amber glass vial. A polytetrafluoroethylene coated magnetic stir bar was added to each vial. The slurry sample was stirred for one day and checked to confirm solids were still present. The sample was then seeded with forms identified during the polymorph screening and continued stirring at room temperature for 9 days. Solids were collected and analyzed to determine their crystal form.
The evaporative crystallization experiments from solutions produced another polymorph, termed Form II, and two suspected solvates or hydrates. Competition slurries were prepared with Form I, Form II and the suspected solvates or hydrates to confirm they were metastable with respect to Form 1. The competition slurries were prepared by dispersing Form II in isopropanol, a water/methanol mixture at a water activity of 0.5, and water.
A variable-temperature competition slurry was repeated using Forms I and III by suspending approximately 100 mg of each form in 2 milliliters of isopropanol at 4° C., room temperature, 40° C., and 50° C. The slurries were allowed to stir for 11 days and checked by PXRD. […] Afterwards, the solutions were seeded with Form I and stirred for 1 day.

Data set [4] in a line: Solvent-mediated polymorphic transformation experiments (slurry / slow evaporation, PXRD). How it is done: Solvent-mediated polymorphic transformation experiments were conducted by combining approximately 100 mg of starting material with 1 milliliter of solvent in a 4 mL amber glass vial. A polytetrafluoroethylene coated magnetic stir bar was added to each vial. For suspensions, the vials were sealed with polytetrafluoroethylene-lined caps and stirred using magnetic stir plates at 4° C., room temperature, or 50° C. for 14 days. For solutions, the vials were covered with aluminum foil and the solutions were slowly evaporated for 14 days. Solids were collected and analyzed for changes in crystal form. For this work, both slurry and evaporative crystallization was performed. Slurry experiments are utilized to identify the thermodynamically stable form while evaporative crystallizations favor the identification of metastable forms.

Data set [5] in a line: Temperature-solubility profile in isopropanol (Crystal 16). How it is done: To further characterize Form III, temperature-solubility profiles were constructed for both Form I and III. Different amounts of each form were suspended in 1 milliliter of isopropanol to prepare solutions of varying concentrations. The experiments were conducted on Crystal 16 to generate a temperature-solubility profile. The suspensions were slowly heated from 20° C. to 75° C. at 0.1° C./min and then cooled to 0° C. at a rate of 0.1° C. /min. The stirring rate was 700 rpm during the entire experiment.

Data set [6] is described as follows: Change in crystal form as a function of heating (DSC heating rates). The note with it: DSC at 2° C., 10° C. and 20° C. per minute. How it is done:
Change in crystal form as a function of heating was evaluated by analyzing samples of the material using the DSC at heating rates of 2, 10, and 20° C. per minute.

Data set [7] can be described thus: Vapor sorption analysis (change in crystal form as a function of moisture). The note with it: 25° C. On the procedure:
as §1
Change in crystal form as a function of moisture was evaluated by a SGA-100 vapor sorption instrument from VTI Scientific Instruments. Approximately 10 to 15 mg of material was exposed to a relative humidity range from 5% to 95% at 25° C. for 2 cycles.

A short description of data set [8]: Change in crystal form as a function of milling. The note with it: ground for 5 seconds at 3800 rpm. On the procedure: Change in crystal form as a function of milling was conducted by grinding 79.2 milligrams of material in a stainless steel liner with a stainless steel ball pestle using a high speed mixer and amalgamator. The material was ground for 5 seconds at 3800 rpm.

Data set [9] in a line: Change in crystal form as a function of pressure (Carver press). Conditions: 13 mm die, approximately 4000 pounds, approximately 30 seconds. How it is done: Change in crystal form as a function of pressure was evaluated by pressing 86.0 mg of material in a 13 millimeter die at approximately 4000 pounds for approximately 30 seconds with a carver press.
Data set [10] is described as follows: DSC, heat of fusion rule. The note with it: monotropically related forms. On the procedure: as §1
On the technique in general: Differential scanning calorimetry records heat flow against a reference as temperature is scanned.

Setting [11] is: Acetonitrile, RT/Solution, slowly evaporated 14 days.
Where [12] appears, read: Dichloromethane, RT/Solution, slowly evaporated 14 days.
[13] abbreviates: Isopropanol, RT/Suspension, stirred 14 days.
The mark [14] stands for this setting: Water, RT/Suspension, stirred 14 days.
Setting [15] is: Water/Methanol, 4° C./Suspension, stirred 14 days.
[16] abbreviates: Water/Methanol, 50° C./Suspension, stirred 14 days.
[17] abbreviates: Water/Methanol, RT/Suspension, stirred 14 days.

The values below come from US20130274270A1, “POLYMORPHS OF 3-CHLORO-4[(2R)-2-(4-CHLOROPHENYL)-4-[(1R)-1-(4-CYANOPHENYL)ETHYL]-1-PIPERAZINYL]-BENZONITRILE, PHARMACEUTICAL COMPOSITIONS AND METHOD OF USE COMPRISING SAID POLYMORPHS, AND A PROCESS FOR PREPARING THEM” (priority 2010, published 2013).

Counter-ions that a name gives are not always drawn.

Turning to `CC(c1ccc(C#N)cc1)N1CCN(c2ccc(C#N)cc2Cl)C(c2ccc(Cl)cc2)C1` (stereo not drawn) [Formula II], the sensitivity to light entry in data set [1] was “photosensitive”.
Take `C[C@H](c1ccc(C#N)cc1)N1CCN(c2ccc(C#N)cc2Cl)[C@H](c2ccc(Cl)cc2)C1` [Form II, 3-Chloro-4[(2R)-2-(4-chlorophenyl)-4-[(1R)-1-(4-cyanophenyl)ethyl]-1-piperazinyl]-benzonitrile]: in data set [2], the decomposition temperature worked out at 310 °C. Moreover, the “weight loss (TGA)” value in [2] (at 226° C.) came out at 0.6%. For the same compound, the “Crystal form of solids collected from competition slurry” value in data set [3] (Form II dispersed in isopropanol, seeded with the other forms, room temperature) is given as “consistent with Form I”; in data set [3] (Form II dispersed in water, seeded, room temperature) it was “stayed as Form II”; in data set [3] (Form II dispersed in water/methanol mixture at a water activity of 0.5, seeded, room temperature), “consistent with Form I”. The “PXRD Result” value in data set [4] (setting [11]) was “Form II”; in [4] (setting [12]), “Form II”; in data set [4] (setting [13]), “Form I”; in data set [4] (setting [14]), “Form II”; in [4] (setting [15]), “Form I”; in [4] (setting [16]), “Form I”. Besides, the “PXRD Result” value in data set [4] (setting [17]) is listed as “Form I”.
Regarding `C[C@H](c1ccc(C#N)cc1)N1CCN(c2ccc(C#N)cc2Cl)[C@H](c2ccc(Cl)cc2)C1` [Form III, 3-Chloro-4[(2R)-2-(4-chlorophenyl)-4-[(1R)-1-(4-cyanophenyl)ethyl]-1-piperazinyl]-benzonitrile], the decomposition temperature in data set [2] is 312 °C. Moreover, the “weight loss (TGA)” value in [2] (at 228° C.) is reported as 0.07%. In addition, in data set [3], the “Thermodynamic stability by competition slurry experiments” value is “the most stable form”. The “PXRD result of variable-temperature competition slurry of Forms I and III” value in [3] (about 100 mg of each form in 2 mL isopropanol at 4° C., room temperature, 40° C. and 50° C., 11 days) is “Form III was formed under all conditions”. Moreover, the “PXRD result after seeding with Form I” value in data set [3] (isopropanol slurries seeded with Form I and stirred for 1 day) is reported as “remained as Form III”. Moreover, the “thermodynamic stability from temperature-solubility profile” value in [5] (above 29.4° C.) is recorded as “the most thermodynamically stable anhydrous crystalline form”. The relative solubility result in data set [5] (at temperatures greater than 29.4° C.) is given as “less soluble than Form I”.
For `C[C@H](c1ccc(C#N)cc1)N1CCN(c2ccc(C#N)cc2Cl)[C@H](c2ccc(Cl)cc2)C1` [xinafoate salt], the “weight loss (TGA)” value worked out at 0.2% in data set [2] (at 146° C.); 27.2% in data set [2] (starting from 161° C. and ending at 236° C.). Besides, the “behaviour of the salt on melting (large weight loss at melt)” value in data set [2] (melt at 163.5° C.) is listed as “disproportionates or decomposes with melting”.
As for `C[C@H](c1ccc(C#N)cc1)N1CCN(c2ccc(C#N)cc2Cl)[C@H](c2ccc(Cl)cc2)C1` [Compound A, 3-Chloro-4[(2R)-2-(4-chlorophenyl)-4-[(1R)-1-(4-cyanophenyl)ethyl]-1-piperazinyl]-benzonitrile], in data set [1], the sensitivity to light entry is recorded as “photosensitive”.
Take `C[C@H](c1ccc(C#N)cc1)N1CCN(c2ccc(C#N)cc2Cl)[C@H](c2ccc(Cl)cc2)C1` [Form I, 3-Chloro-4[(2R)-2-(4-chlorophenyl)-4-[(1R)-1-(4-cyanophenyl)ethyl]-1-piperazinyl]-benzonitrile]: the decomposition temperature entry in [2] was “above 295 °C”. For the same compound, the “weight loss (TGA)” value in data set [2] (at 204° C.) is on record as 0.6%. Further, the “change in crystal form as a function of heating rate” value in [6] is reported as “no change in the crystal form”. Moreover, the “polymorphic form change after vapor sorption analysis (PXRD before and after)” value in [7] (5% to 95% relative humidity) was “no polymorphic form change”. The “moisture absorbed by weight” value in data set [7] (between 5% and 95% relative humidity, 2 cycles) was 0.07%. The “Thermodynamic stability by competition slurry experiments” value in [3] is reported as “a stable form”. For the same compound, in data set [8], the “change in crystal form after milling” value is listed as “no significant change in the crystal form”. Also, in [9], the “change in crystal form after pressing” value is “no significant change in the crystal form”. For the same compound, the “PXRD Result” value was “Form 2” in data set [4] (setting [11]); “Form 2” in data set [4] (setting [12]); “Form 1” in data set [4] (setting [13]); “Amorphous” in data set [4] (Toluene, 50° C./Solution, 14 days); “Form 1” in data set [4] (setting [14]); “Form 1” in [4] (setting [15]). Also, the “PXRD Result” value in data set [4] (setting [16]) and in [4] (setting [17]) was “Form 1” in each case. For the same compound, the “Thermodynamic stability indicated by slurry experiments” value in data set [4] (all slurry experiments except those in water, regardless of starting form, water activity or temperature) is given as “the most thermodynamically stable form”. The “relative thermodynamic stability of Form I and Form II (heat of fusion rule)” value in data set [10] is “the more thermodynamically stable”.
